# Measurements as given in US9522120B2, “Compositions and methods of making sustained release liquid formulations” (NEOS THERAPEUTICS, LP, priority 2005, dated 2016).
# Columns and labels:
# [1] = water and alcohol; cited from earlier work
# [2] = Dissolution of phenylephrine sustained release coated beads; format: physicochemical; details: when combined with Gauifenesin DC
# Protocol: Due to this effect the testing of the dissolution rate is achieved by first making a mock-up of the finished product. By doing so the suitability of the phenylephrine beads was determined more accurately. Direct specifications for dissolution were determined once data was collected to accurately predict this rate change.
SMILES,solubility [1],dissolution rate [2]
"COc1ccccc1OCC(O)CO (centres unmarked) [Guaifenesin, 3(2-methoxyphenoxy)-1,2-propanediol]",soluble in water and alcohol,
CNC[C@H](O)c1cccc(O)c1 [phenylephrine],,accelerated
